Results taken from US12473584B2, “Method for detecting the presence, identification and quantification in a blood sample of anticoagulants which are blood coagulation enzymes inhibitors, and means for the implementation thereof” (DIAGNOSTICA STAGO, priority 2018, dated 2025).

Target: T1, bovine factor Xa (Bos taurus, UniProt P00743)
T1 construct: (bovine factor Xa); purchased Stago (Diagnostica Stago) STA®—Liquid Anti-Xa commercial kit (catalogue number not given)
Test: competitive enzymatic assay, enzyme-substrate reaction (universal methodology, STA-Liquid Anti-Xa kit)
Assay type: biochemical
Conditions: bovine factor Xa [E]≈10 nM, substrate [S]≈482 μM, 37° C.
Protocol: In accordance with this particular embodiment, the in vitro measurement for the detection, the identification, and the quantification of synthetic inhibitors of factor Xa was carried out in accordance with the following principle: • 25 μL of a plasma sample suspected of containing a heparin or an anti-Xa DOAC was diluted in 25 μL of Owren Koller buffer (TOK), then placed in a consumable; • 150 μL of “Substrate” reagent (MAPA-Gly-Arg-pNA) (reagent in the STA®—Liquid Anti-Xa commercial kit) specific for factor Xa was added to the reaction mixture; • an incubation step of 240 seconds raised the reaction mixture to 37° C.; • 150 μL of the reagent “F. Xa” (bovine factor Xa) (reagent in the STA®—Liquid Anti-Xa commercial kit) was added to the reaction mixture, thereby initiating competition between the inhibition reaction and the enzymatic reaction; • the measurement per se was then carried out over 156 seconds: factor Xa transforms the substrate into product while at the same time being inhibited by the heparin or the DOAC if they are present in the sample. […]

T1 sequence (P00743 234-492 limits assumed): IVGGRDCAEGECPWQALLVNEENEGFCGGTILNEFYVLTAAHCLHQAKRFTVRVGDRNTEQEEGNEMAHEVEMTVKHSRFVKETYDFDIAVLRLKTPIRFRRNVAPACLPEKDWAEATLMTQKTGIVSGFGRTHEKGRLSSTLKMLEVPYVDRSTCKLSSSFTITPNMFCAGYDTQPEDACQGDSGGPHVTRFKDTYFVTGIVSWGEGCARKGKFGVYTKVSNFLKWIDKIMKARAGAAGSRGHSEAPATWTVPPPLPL
T1 sequence (P00743 41-180 limits assumed): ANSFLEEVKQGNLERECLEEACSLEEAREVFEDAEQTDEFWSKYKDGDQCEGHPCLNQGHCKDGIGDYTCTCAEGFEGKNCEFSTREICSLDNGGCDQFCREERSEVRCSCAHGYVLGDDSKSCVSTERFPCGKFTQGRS

## MAPA-Gly-Arg-pNA
  Michaelis constant KM associated with the enzyme-substrate reaction: ~500 µM
  catalytic constant kcat associated with the enzyme-substrate reaction: approximately 400 s-1
